Data as given in patent US10568950B1, “Peptides, combination of peptides and scaffolds for use in immunotherapeutic treatment of various cancers” (Immatics Biotechnologies GmbH, priority 2015, dated 2020).

Tests used:
[1] = test system: CD8+ T cells of healthy HLA-A*24+ donors; assay: In vitro immunogenicity: priming of CD8+ T cells with aAPCs loaded with HLA-A*24/peptide complexes and anti-CD28, multimer staining; assay type: cell-based, human; details: for Wells positive [%]: in vitro immunogenicity, HLA-A*24 peptides of Table 12B; for wells: in vitro immunogenicity of HLA class I peptides, share of positive wells, peptides of Table 3 (HLA-A*24 binding)
Procedure: CD8+ T cells were primed using artificial APCs coated with anti-CD28 mAb and HLA-A*24 in complex with SEQ ID NO: 99 peptide (FIG. 5A, left panel), SEQ ID NO: 119 peptide (FIG. 5B, left panel), SEQ ID NO: 142 peptide (FIG. 5C, left panel) and SEQ ID NO: 174 peptide (FIG. 5D, left panel), respectively. After three cycles of stimulation, the detection of peptide-reactive cells was performed by 2D multimer staining with A*24/SEQ ID NO: 99 (A), A*24/SEQ ID NO: 119 (B), A*24/SEQ ID NO: 142 (C) or A*24/SEQ ID NO: 174 (D). Right panels (FIGS. 5A, 5B, 5C and 5D) show control staining of cells stimulated with irrelevant A*24/peptide complexes. Viable singlet cells were gated for CD8+ lymphocytes. Boolean gates helped excluding false-positive events detected with multimers specific for different peptides. Frequencies of specific multimer+ cells among CD8+ lymphocytes are indicated.
In order to obtain information regarding the immunogenicity of the TUMAPs of the present invention, the inventors performed investigations using an in vitro T-cell priming assay based on repeated stimulations of CD8+ T cells with artificial antigen presenting cells (aAPCs) loaded with peptide/MHC complexes and anti-CD28 antibody.
PBMCs and isolated CD8+ lymphocytes were incubated in T-cell medium (TCM) until use consisting of RPMI-Glutamax (Invitrogen, Karlsruhe, Germany) supplemented with 10% heat inactivated human AB serum (PAN-Biotech, Aidenbach, Germany), 100 U/ml Penicillin/100 μg/ml Streptomycin (Cambrex, Cologne, Germany), 1 mM sodium pyruvate (CC Pro, Oberdorla, Germany), 20 μg/ml Gentamycin (Cambrex). 2.5 ng/ml IL-7 (PromoCell, Heidelberg, Germany) and 10 U/ml IL-2 (Novartis Pharma, Nurnberg, Germany) were also added to the TCM at this step.
Generation of pMHC/anti-CD28 coated beads, T-cell stimulations and readout was performed in a highly defined in vitro system using four different pMHC molecules per stimulation condition and 8 different pMHC molecules per readout condition.
The purified co-stimulatory mouse IgG2a anti human CD28 Ab 9.3 (Jung et al., 1987) was chemically biotinylated using Sulfo-N-hydroxysuccinimidobiotin as recommended by the manufacturer (Perbio, Bonn, Germany). Beads used were 5.6 μm diameter streptavidin coated polystyrene particles (Bangs Laboratories, Illinois, USA).
800.000 beads/200 μl were coated in 96-well plates in the presence of 4×12.5 ng different biotin-pMHC, washed and 600 ng biotin anti-CD28 were added subsequently in a volume of 200 μl. Stimulations were initiated in 96-well plates by co-incubating […] CD8+ T cells with 2×10^5 washed coated beads in 200 μl TCM supplemented with 5 ng/ml IL-12 (PromoCell) for 3 days at 37° C. Half of the medium was then exchanged by fresh TCM supplemented with 80 U/ml IL-2 and incubating was continued for 4 days at 37° C. This stimulation cycle was performed for a total of three times. For the pMHC multimer readout using 8 different pMHC molecules per condition, a two-dimensional combinatorial coding approach was used as previously described (Andersen et al., 2012) with minor modifications encompassing coupling to 5 different fluorochromes. Finally, multimeric analyses were performed by staining the cells with Live/dead near IR dye (Invitrogen, Karlsruhe, Germany), CD8-FITC antibody clone SKI (BD, Heidelberg, Germany) and fluorescent pMHC multimers. For analysis, a BD LSRII SORP cytometer equipped with appropriate lasers and filters was used. Peptide specific cells were calculated as percentage of total CD8+ cells. Evaluation of multimeric analysis was done using the FlowJo software (Tree Star, Oreg., USA). In vitro priming of specific multimer+ CD8+ lymphocytes was detected by comparing to negative control stimulations.

[2] = test system: HLA-A*24; assay: MHC binding assay: UV-ligand exchange, beta2m ELISA (peptide exchange yield); parameters: species or system human; details: binding to HLA-A*24, β2m ELISA
Text: Candidate peptides for T cell based therapies according to the present invention were further tested for their MHC binding capacity (affinity). The individual peptide-MHC complexes were produced by UV-ligand exchange, where a UV-sensitive peptide is cleaved upon UV-irradiation, and exchanged with the peptide of interest as analyzed. Only peptide candidates that can effectively bind and stabilize the peptide-receptive MHC molecules prevent dissociation of the MHC complexes. To determine the yield of the exchange reaction, an ELISA was performed based on the detection of the light chain (β2m) of stabilized MHC complexes. The assay was performed as generally described in Rodenko et al. (Rodenko et al., 2006).
96 well MAXISorp plates (NUNC) were coated over night with 2 ug/ml streptavidin in PBS at room temperature, washed 4× and blocked for 1 h at 37° C. in 2% BSA containing blocking buffer. […] Peptide-MHC monomers of the UV-exchange reaction were diluted 100 fold in blocking buffer. Samples were incubated for 1 h at 37° C., washed four times, incubated with 2 ug/ml HRP conjugated anti-βm for 1 h at 37° C., washed again and detected with TMB solution that is stopped with […]. Absorption was measured at 450 nm. Candidate peptides that show a high exchange yield (preferably higher than 50%, most preferred higher than 75%) are generally preferred for a generation and production of antibodies or fragments thereof, and/or T cell receptors or fragments thereof, as they show sufficient avidity to the MHC molecules and prevent dissociation of the MHC complexes.

Substance | Wells positive [%] [1] | Peptide exchange (MHC class I binding score, peptide exchange yield) [2] | wells [1]
96 (YYTQYSQTI; listed as Homo sapiens) [compound 96] | + (<20% = +) | ++++ (>= 75% = ++++) | –
99 (QYILAVPVL; listed as Homo sapiens) [compound 99] | +++ (50%-69% = +++) | ++++ (>= 75% = ++++) | –
104 (SYLTWHQQI; listed as Homo sapiens) [compound 104] | + (<20% = +) | ++++ (>= 75% = ++++) | –
109 (LFITGGQFF; listed as Homo sapiens) [compound 109] | ++ (20%-49% = ++) | ++++ (>= 75% = ++++) | –
110 (SYPKIIEEF; listed as Homo sapiens) [compound 110] | ++ (20%-49% = ++) | – | –
111 (VYVQILQKL; listed as Homo sapiens) [compound 111] | + (<20% = +) | – | –
112 (IYNFVESKL; listed as Homo sapiens) [compound 112] | +++ (50%-69% = +++) | – | –
114 (QYLDGTWSL; listed as Homo sapiens) [compound 114] | +++ (50%-69% = +++) | ++++ (>= 75% = ++++) | –
115 (RYLNKSFVL; listed as Homo sapiens) [compound 115] | + (<20% = +) | – | –
119 (VYRVYVTTF; listed as Homo sapiens) [compound 119] | +++ (50%-69% = +++) | – | –
120 (GYIEHFSLW; listed as Homo sapiens) [compound 120] | ++ (20%-49% = ++) | ++++ (>= 75% = ++++) | –
122 (EYQARIPEF; listed as Homo sapiens) [compound 122] | ++ (20%-49% = ++) | – | –
139 (IFGIFPNQF; listed as Homo sapiens) [compound 139] | ++ (20%-49% = ++) | – | –
142 (VYVDDIYVI; listed as Homo sapiens) [compound 142] | ++++ (>= 70 % = ++++) | – | –
157 (DYIPASGFALF; listed as Homo sapiens) [compound 157] | + (<20% = +) | – | –
158 (IYEETRGVLKVF; listed as Homo sapiens) [compound 158] | + (<20% = +) | – | –
160 (RYGDGGSSF; listed as Homo sapiens) [compound 160] | + (<20% = +) | – | –
161 (KYPDIVQQF; listed as Homo sapiens) [compound 161] | + (<20% = +) | – | –
162 (KYTSYILAF; listed as Homo sapiens) [compound 162] | + (<20% = +) | – | –
164 (HYVPATKVF; listed as Homo sapiens) [compound 164] | + (<20% = +) | – | –
167 (RYGFYYVEF; listed as Homo sapiens) [compound 167] | ++++ (>= 70 % = ++++) | – | –
168 (RYLEAALRL; listed as Homo sapiens) [compound 168] | +++ (50%-69% = +++) | – | –
171 (NYEDHFPLL; listed as Homo sapiens) [compound 171] | ++ (20%-49% = ++) | – | –
174 (VYEKNGYIYF; listed as Homo sapiens) [compound 174] | ++++ (>= 70 % = ++++) | – | –
175 (LYSPVPFTL; listed as Homo sapiens) [compound 175] | + (<20% = +) | – | –

Substance | Wells positive [%] [1] | Peptide exchange (MHC class I binding score, peptide exchange yield) [2] | wells [1]
177 (VYFKAGLDVF; listed as Homo sapiens) [compound 177] | + (<20% = +) | – | –
179 (TYIPVGLGRLL; listed as Homo sapiens) [compound 179] | +++ (50%-69% = +++) | – | –
180 (KYLQVVGMF; listed as Homo sapiens) [compound 180] | + (<20% = +) | – | –
181 (VYPPYLNYL; listed as Homo sapiens) [compound 181] | ++++ (>= 70 % = ++++) | – | –
190 (LYSELTETL; listed as Homo sapiens) [compound 190] | ++++ (>= 70 % = ++++) | – | –
277 (FYTFPFQQL; listed as Homo sapiens) [compound 277] | +++ (50%-69% = +++) | – | –
344 (EYNSDLHQF; listed as Homo sapiens) [compound 344] | + (<20% = +) | – | –
345 (EYNSDLHQFF; listed as Homo sapiens) [compound 345] | ++ (20%-49% = ++) | – | –
349 (QYSIISNVF; listed as Homo sapiens) [compound 349] | ++ (20%-49% = ++) | – | –
350 (KYGNFIDKL; listed as Homo sapiens) [compound 350] | +++ (50%-69% = +++) | – | –
351 (IFHEVPLKF; listed as Homo sapiens) [compound 351] | ++ (20%-49% = ++) | – | –
353 (TYGKIDLGF; listed as Homo sapiens) [compound 353] | + (<20% = +) | – | –
354 (VYNEQIRDLL; listed as Homo sapiens) [compound 354] | + (<20% = +) | – | –
358 (YYSEVPVKL; listed as Homo sapiens) [compound 358] | ++++ (>= 70 % = ++++) | – | –
360 (VFSPDGHLF; listed as Homo sapiens) [compound 360] | ++ (20%-49% = ++) | – | –
363 (SYAELGTTI; listed as Homo sapiens) [compound 363] | + (<20% = +) | – | –
366 (QYLELAHSL; listed as Homo sapiens) [compound 366] | ++ (20%-49% = ++) | – | –
367 (LYQDHMQYI; listed as Homo sapiens) [compound 367] | ++ (20%-49% = ++) | – | –
371 (AYSHLRYVF; listed as Homo sapiens) [compound 371] | ++ (20%-49% = ++) | – | –
393 (KYIEAIQWI; listed as Homo sapiens) [compound 393] | – | – | ++ (20%-49% = ++)
399 (SYIDVLPEF; listed as Homo sapiens) [compound 399] | – | – | ++ (20%-49% = ++)
400 (KYLEKYYNL; listed as Homo sapiens) [compound 400] | – | – | ++ (20%-49% = ++)
407 (VYGIRLEHF; listed as Homo sapiens) [compound 407] | – | – | +++ (50%-69% = +++)
414 (MYPYIYHVL; listed as Homo sapiens) [compound 414] | – | – | ++ (20%-49% = ++)
